In publication PMC3629977 (Journal of nuclear medicine : official publication, Society …, 2010):
Bridge positions count the residues as written; N and C are the ends. Square brackets hold non-standard residues; d marks the D form. Peptide text beside a SMILES is read from it. * marks the point of attachment. 2Nal = N[C@@H](Cc1ccc2ccccc2c1)C(=O)O; Benzoyl(4-F) = O=C(c1ccc(F)cc1)*; Cit = NC(=O)NCCC[C@H](N)C(=O)O

Legend:
CXCR4 = conditions: cited from earlier work
[1] = test system: stem cells from the bone marrow; conditions: compared with AMD3100/plerixafor; cited from earlier work
CHO-CXCR4 tumors [2] = conditions: in vivo
red blood cells = conditions: mouse, in vivo
CHO-CXCR4 tumors [3] = conditions: 4-^18F-T140 alone, mice bearing CHO and CHO-CXCR4 tumors; Fig. 5A: 2 h after injection, 50 μCi
[4] = female, athymic nude, mouse, iv, 3 h

Structure (SMILES) | CXCR4 antagonist selectivity (CXCR4) | in vivo mobilization of stem cells from the bone marrow [1] | tumor-to-blood ratio (CHO-CXCR4) (CHO-CXCR4 tumors [2]; [4]) | tumor-to-muscle ratio (CHO-CXCR4) (CHO-CXCR4 tumors [2]; [4]) | difference of uptake between CHO-CXCR4 and CXCR4-negative CHO tumors (CHO-CXCR4 tumors [2]) | binding to red blood cells (red blood cells) | PET visualization of tumors (CHO-CXCR4 tumors [3])
N=C(N)NCCC[C@H](NC(=O)[C@@H]1CSSC[C@H](NC(=O)[C@H](Cc2ccc3ccccc3c2)NC(=O)[C@H](CCCNC(=N)N)NC(=O)[C@H](CCCNC(=N)N)NC(=O)c2ccc(F)cc2)C(=O)N[C@@H](Cc2ccc(O)cc2)C(=O)N[C@@H](CCCNC(N)=O)C(=O)N[C@@H](CCCCN)C(=O)N[C@H](CCCCN)C(=O)N2CCC[C@H]2C(=O)N[C@@H](Cc2ccc(O)cc2)C(=O)N[C@@H](CCCNC(=N)N)C(=O)N[C@@H](CCCNC(N)=O)C(=O)N1)C(N)=O [4-F-T140, 4-F-benzoyl-TN14003] ({Benzoyl(4-F)}-RR[2Nal]CY[Cit]K[dK]PYR[Cit]CR-NH2; disulfide 4-13) | highly selective CXCR4 antagonist | increased in vivo mobilization of stem cells from the bone marrow | – | – | – | – | –
N=C(N)NCCC[C@H](NC(=O)[C@@H]1CSSC[C@H](NC(=O)[C@H](Cc2ccc3ccccc3c2)NC(=O)[C@H](CCCNC(=N)N)NC(=O)[C@H](CCCNC(=N)N)NC(=O)c2ccc(F)cc2)C(=O)N[C@@H](Cc2ccc(O)cc2)C(=O)N[C@@H](CCCNC(N)=O)C(=O)N[C@@H](CCCCN)C(=O)N[C@H](CCCCN)C(=O)N2CCC[C@H]2C(=O)N[C@@H](Cc2ccc(O)cc2)C(=O)N[C@@H](CCCNC(=N)N)C(=O)N[C@@H](CCCNC(N)=O)C(=O)N1)C(N)=O [4-^18F-T140, 4-^18F-benzoyl-TN14003] ({Benzoyl(4-F)}-RR[2Nal]CY[Cit]K[dK]PYR[Cit]CR-NH2; disulfide 4-13) | – | – | 0.19 ± 0.04 | 2.94 ± 0.16 | not statistically significant | bind specifically to red blood cells in vitro and in vivo | clearly showed both tumors
